How the values were obtained:
[1] = target: T1, Lanosterol synthase of human origin (Homo sapiens, UniProt P48449); assay: Inhibitory action against lanosterol synthase of human origin (cell-free extract of transformed yeast, [14C](3S)-2,3-oxidosqualene substrate); format: biochemical; conditions: human lanosterol synthase expressed in yeast GIL77, cell-free extract 1 mg protein; 37° C., 60 minutes; substrate 0.17-0.42 μM; read-out: 50% inhibition concentration (IC50) for lanosterol synthase activity
T1 construct: made in house; host or cells: lanosterol synthase deficient yeast GIL77 (GAPDH promoter); cell-free extract
T1 sequence (P48449 1-732): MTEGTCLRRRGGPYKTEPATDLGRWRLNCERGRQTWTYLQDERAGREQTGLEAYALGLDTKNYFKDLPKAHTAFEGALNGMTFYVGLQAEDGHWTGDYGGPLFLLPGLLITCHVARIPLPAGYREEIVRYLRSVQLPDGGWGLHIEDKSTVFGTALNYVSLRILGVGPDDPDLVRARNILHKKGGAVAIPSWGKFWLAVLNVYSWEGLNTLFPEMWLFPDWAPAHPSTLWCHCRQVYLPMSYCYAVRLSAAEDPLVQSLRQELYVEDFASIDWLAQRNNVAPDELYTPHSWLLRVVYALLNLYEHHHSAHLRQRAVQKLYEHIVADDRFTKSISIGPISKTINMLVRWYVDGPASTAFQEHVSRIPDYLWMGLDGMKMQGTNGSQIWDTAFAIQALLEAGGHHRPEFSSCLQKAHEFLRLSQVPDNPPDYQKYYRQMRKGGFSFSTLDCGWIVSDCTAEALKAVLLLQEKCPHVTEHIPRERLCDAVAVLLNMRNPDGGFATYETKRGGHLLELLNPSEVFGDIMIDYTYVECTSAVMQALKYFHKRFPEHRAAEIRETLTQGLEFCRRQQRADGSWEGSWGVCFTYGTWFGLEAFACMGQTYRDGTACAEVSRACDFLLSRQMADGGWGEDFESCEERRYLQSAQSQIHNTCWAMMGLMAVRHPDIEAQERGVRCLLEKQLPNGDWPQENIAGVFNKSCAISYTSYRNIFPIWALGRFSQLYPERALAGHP
Protocol: (1) Inhibitory Action Against Lanosterol Synthase of Human Origin
Enzyme origin used is as follows. […] The thus obtained cell-free extract derived from transformed yeast was used.
The above transformed yeast was homogenized in buffer A [0.1 M potassium-phosphate buffer solution (pH 7.4), 0.45 M sucrose, 1 mM EDTA and 1 mM dithiothreitol] in the presence of acid treated glass beads using Waring blender [Type 500ACD, Sakuma Seisakusho Co., Japan]. Supernatant obtained by centrifugation, 8600×g, was prepared to make protein concentration of 10 mg/ml by adding the buffer A hereinabove to prepare the cell-free extract.
Assay of lanosterol synthase was performed as follows.
Subsequently, 6% potassium hydroxide/ethanol was added thereto to terminate the reaction, and the mixture was saponificated by incubating at 37° C. for 10 minutes, added cyclohexane 2 ml and stirred well. The cyclohexane layer 1.6 ml was dried up, spotted on TLC plate [silica gel plate (with concentration zone), Merck Inc., U.S.A., thickness 0.25 mm: Art. […] Next, amounts of unreacted [^14C](3S)-2,3-oxidosqualene and generated [^14C]lanosterol were quantitatively assayed using the photo image analyzer BAS-1500 (Fuji Photo Film Co., Japan) to calculate inhibition rate of lanosterol synthesis.

Solubility in solvent = format: physicochemical; conditions: for Solubility in solvent: organic solvents: methanol, ethanol, acetonitrile, ethyl acetate, chloroform and dimethyl sulfoxide
[2] = Grouping for acidic, neutral and basic; format: physicochemical

Structure (SMILES)	IC50 [1]	Solubility in solvent: organic solvents (Solubility in solvent)	Solubility in solvent: water (Solubility in solvent)	Grouping for acidic, neutral and basic [2]
CC1=NCC/C1=C\CCCCCCCCCCCCCC(C)C [K99-5041-C1x substance]	15 µM	soluble	insoluble	Weak basic substance
CCCCCCCCCCCCCCCC/C=C1\CCN=C1C [K99-5041-C2x substance]	18 µM	soluble	insoluble	Weak basic substance
